In US20220306695A1, “COMPSTATIN ANALOGUES AND THEIR MEDICAL USES” (priority 2019, published 2022):
Starred links: 1 amine or outer side, 2 acyl side, 3 side chain; linkers in the order of their positions; H or OH if unused. Positions of bridges follow the written chain, without caps; N, C: chain ends. Non-standard residues stand in square brackets, D forms with d. Residues, ends and D or L forms follow the SMILES beside them. Groups on a side chain read outwards from the residue. *: point of attachment. Trp(1-Me) = Cn1cc(C[C@H](N)C(=O)O)c2ccccc21; C18 diacid = O=C(O)CCCCCCCCCCCCCCCCC(=O)*; γGlu = O=C(O)[C@H](CCC(=O)[*:2])N[*:1]; Sar = CNCC(=O)O

Experiments:
[1] = test system: classical complement pathway; test: In vitro haemolysis assay (inhibition of classical complement pathway); assay type: cell-based, human; details: Table 3; human serum, sensitized sheep red blood cells; read-out: IC50[nM], in vitro analysis of inhibition of hemolysis
Outline: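 Serially diluted compound (9 points) was preincubated 15 min at room temperature with diluted human serum, titrated per batch to give 70-90% maximal haemolysis, in Tris/casein buffer pH 7.4 with Mg2+/Ca2+. Antibody-sensitized sheep erythrocytes were then added for 30 min at 37° C, and the reaction was stopped with EDTA. Haemolysis was read at A405, with IC50 from 4PL fit.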

[2] = Solubility test at 10 mg/mL (visual inspection and light scattering); assay type: physicochemical; details: for Solubility, Condition 1 Acetate pH 4: 10 mg/mL compound in 100 mM acetate pH 4; for Solubility, Condition 2 Acetate pH 5: 10 mg/mL compound in 100 mM acetate pH 5; for Solubility, Condition 3 Phosphate pH 6: 10 mg/mL compound in 100 mM phosphate pH 6; for Solubility, Condition 4 Phosphate pH 7: 10 mg/mL compound in 100 mM phosphate pH 7; for Solubility, Condition 5 Phosphate pH 7.5: 10 mg/mL compound in 100 mM phosphate pH 7.5
Procedure: The solubility of compounds was assessed by measuring light scattering over a pH interval from pH 4 to pH 7.5.
Compounds were dissolved in a stock solution of 20 mg/mL in H2O at pH 2.5 or pH 10.
These stock solutions were diluted 1:1 with 200 mM buffered solution to reach a final solution of 10 mg/mL compound in 100 mM buffer. The 5 investigated conditions were (1) acetate pH 4.0, (2) acetate pH 5.0, (3) phosphate pH 6.0, (4) phosphate pH 7 and (5) phosphate pH 7.5.
Visual inspection included manually checking the 96 well plate for wells that are clear or non-clear. In addition to this a picture of the 96 well plate is taken.
Absorbance was measured at four wavelengths: 280 nm, 325 nm, 340 nm and 360 nm in an UV transparent 96 well microplate in a SpectraMax 190 microplate reader (Molecular Devices).
The criteria for this was a combination of visual inspection and light scattering not exceeding 0.1 AU, where values below 0.1 AU are good in visually clear samples. […]

SMILES | IC50 [1] [nM] | Solubility, Condition 1 Acetate pH 4 [2] | Solubility, Condition 2 Acetate pH 5 [2] | Solubility, Condition 3 Phosphate pH 6 [2] | Solubility, Condition 4 Phosphate pH 7 [2] | Solubility, Condition 5 Phosphate pH 7.5 [2]
CC[C@H](C)[C@@H]1NC(=O)[C@@H](NC(=O)[C@@H](NC(=O)[C@H](CCC(=O)O)NC(=O)CNC(=O)[C@H](CCC(=O)O)NC(C)=O)[C@@H](C)CC)CSSC[C@@H](C(=O)N[C@H](C(N)=O)[C@@H](C)O)NC(=O)[C@H](CCCNC(=N)N)NC(=O)[C@H](Cc2c[nH]cn2)NC(=O)[C@H](CCC(=O)O)NC(=O)CNC(=O)[C@H](Cc2c[nH]c3ccccc23)NC(=O)[C@H](CC(=O)O)NC(=O)[C@H](CCC(N)=O)NC(=O)[C@H](Cc2c[nH]c3ccccc23)NC1=O [Compound 30] (Ac-EGEICIWQDWGEHRCT-NH2; disulfide 5-15) | < 100 | − (denotes lack of solubility at the given condition, as UV absorbance at 340 nm exceeds 0.1 AU and/or it is visibly turbid or contains particles.) | − (denotes lack of solubility at the given condition, as UV absorbance at 340 nm exceeds 0.1 AU and/or it is visibly turbid or contains particles.) | − (denotes lack of solubility at the given condition, as UV absorbance at 340 nm exceeds 0.1 AU and/or it is visibly turbid or contains particles.) | + (denotes solubility at the given condition, as determined by UV absorbance being less than 0.1 AU at 340 nm and the sample being clear when manually inspected.) | + (denotes solubility at the given condition, as determined by UV absorbance being less than 0.1 AU at 340 nm and the sample being clear when manually inspected.)
CC[C@H](C)[C@@H]1NC(=O)[C@@H](NC(=O)[C@@H](NC(=O)[C@H](CCC(=O)O)NC(C)=O)[C@@H](C)CC)CSSC[C@@H](C(=O)N[C@H](C(=O)N[C@@H](CCC(=O)O)C(N)=O)[C@@H](C)O)NC(=O)[C@H](CCCNC(=N)N)NC(=O)[C@H](Cc2c[nH]cn2)NC(=O)[C@H](CCC(=O)O)NC(=O)CNC(=O)[C@H](Cc2c[nH]c3ccccc23)NC(=O)[C@H](CC(=O)O)NC(=O)[C@H](CCC(N)=O)NC(=O)[C@H](Cc2c[nH]c3ccccc23)NC1=O [Compound 33] (Ac-EICIWQDWGEHRCTE-NH2; disulfide 3-13) | < 100 | − (denotes lack of solubility at the given condition, as UV absorbance at 340 nm exceeds 0.1 AU and/or it is visibly turbid or contains particles.) | − (denotes lack of solubility at the given condition, as UV absorbance at 340 nm exceeds 0.1 AU and/or it is visibly turbid or contains particles.) | + (denotes solubility at the given condition, as determined by UV absorbance being less than 0.1 AU at 340 nm and the sample being clear when manually inspected.) | + (denotes solubility at the given condition, as determined by UV absorbance being less than 0.1 AU at 340 nm and the sample being clear when manually inspected.) | + (denotes solubility at the given condition, as determined by UV absorbance being less than 0.1 AU at 340 nm and the sample being clear when manually inspected.)
CC[C@H](C)[C@@H]1NC(=O)[C@@H](NC(=O)[C@H](Cc2ccc(O)cc2)NC(C)=O)CSSC[C@@H](C(=O)N[C@H](C(=O)N[C@@H](CCC(=O)O)C(=O)N[C@@H](C)C(=O)NCC(=O)N[C@@H](CO)C(N)=O)[C@@H](C)O)NC(=O)[C@H](CCCNC(=N)N)NC(=O)[C@H](Cc2c[nH]cn2)NC(=O)[C@H](CCC(=O)O)NC(=O)CNC(=O)[C@H](Cc2c[nH]c3ccccc23)NC(=O)[C@H](CC(=O)O)NC(=O)[C@H](CCC(N)=O)NC(=O)[C@H](Cc2cn(C)c3ccccc23)NC1=O [Compound 68] (Ac-YCI[Trp(1-Me)]QDWGEHRCTEAGS-NH2; disulfide 2-12) | < 100 | − (denotes lack of solubility at the given condition, as UV absorbance at 340 nm exceeds 0.1 AU and/or it is visibly turbid or contains particles.) | − (denotes lack of solubility at the given condition, as UV absorbance at 340 nm exceeds 0.1 AU and/or it is visibly turbid or contains particles.) | + (denotes solubility at the given condition, as determined by UV absorbance being less than 0.1 AU at 340 nm and the sample being clear when manually inspected.) | + (denotes solubility at the given condition, as determined by UV absorbance being less than 0.1 AU at 340 nm and the sample being clear when manually inspected.) | + (denotes solubility at the given condition, as determined by UV absorbance being less than 0.1 AU at 340 nm and the sample being clear when manually inspected.)
CC[C@H](C)[C@@H]1NC(=O)[C@@H](NC(=O)[C@H](Cc2ccc(O)cc2)NC(=O)[C@H](CCC(=O)O)NC(=O)[C@H](CO)NC(C)=O)CSSC[C@@H](C(=O)N(C)CC(=O)N[C@@H](CCC(=O)O)C(=O)NCC(=O)N[C@@H](CCC(=O)O)C(=O)N[C@@H](CCCCNC(=O)CC[C@H](NC(=O)CNC(=O)CC[C@H](NC(=O)CCCCCCCCCCCCCCCCC(=O)O)C(=O)O)C(=O)O)C(N)=O)NC(=O)[C@H](CCCNC(=N)N)NC(=O)[C@H](Cc2c[nH]cn2)NC(=O)[C@H](CCC(=O)O)NC(=O)CNC(=O)[C@H](Cc2c[nH]c3ccccc23)NC(=O)[C@H](CC(=O)O)NC(=O)[C@H](CCC(N)=O)NC(=O)[C@H](Cc2cn(C)c3ccccc23)NC1=O [Compound 114] (Ac-SEYCI[Trp(1-Me)]QDWGEHRC[Sar]EGEK([γGlu-Gly-γGlu-C18 diacid])-NH2; disulfide 4-14) | < 500 | + (denotes solubility at the given condition, as determined by UV absorbance being less than 0.1 AU at 340 nm and the sample being clear when manually inspected.) | + (denotes solubility at the given condition, as determined by UV absorbance being less than 0.1 AU at 340 nm and the sample being clear when manually inspected.) | + (denotes solubility at the given condition, as determined by UV absorbance being less than 0.1 AU at 340 nm and the sample being clear when manually inspected.) | + (denotes solubility at the given condition, as determined by UV absorbance being less than 0.1 AU at 340 nm and the sample being clear when manually inspected.) | + (denotes solubility at the given condition, as determined by UV absorbance being less than 0.1 AU at 340 nm and the sample being clear when manually inspected.)
CC[C@H](C)[C@@H]1NC(=O)[C@@H](NC(=O)[C@H](Cc2ccc(O)cc2)NC(=O)[C@H](CCC(=O)O)NC(=O)[C@H](CO)NC(C)=O)CSSC[C@@H](C(=O)N(C)CC(=O)N[C@@H](CCC(=O)O)C(=O)NCC(=O)N[C@@H](CCCCN)C(=O)N[C@@H](CCCCNC(=O)CC[C@H](NC(=O)CNC(=O)CC[C@H](NC(=O)CCCCCCCCCCCCCCCCC(=O)O)C(=O)O)C(=O)O)C(N)=O)NC(=O)[C@H](CCCNC(=N)N)NC(=O)[C@H](Cc2c[nH]cn2)NC(=O)[C@H](CCC(=O)O)NC(=O)CNC(=O)[C@H](Cc2c[nH]c3ccccc23)NC(=O)[C@H](CC(=O)O)NC(=O)[C@H](CCC(N)=O)NC(=O)[C@H](Cc2cn(C)c3ccccc23)NC1=O [Compound 115] (Ac-SEYCI[Trp(1-Me)]QDWGEHRC[Sar]EGKK([γGlu-Gly-γGlu-C18 diacid])-NH2; disulfide 4-14) | < 250 | − (denotes lack of solubility at the given condition, as UV absorbance at 340 nm exceeds 0.1 AU and/or it is visibly turbid or contains particles.) | − (denotes lack of solubility at the given condition, as UV absorbance at 340 nm exceeds 0.1 AU and/or it is visibly turbid or contains particles.) | + (denotes solubility at the given condition, as determined by UV absorbance being less than 0.1 AU at 340 nm and the sample being clear when manually inspected.) | + (denotes solubility at the given condition, as determined by UV absorbance being less than 0.1 AU at 340 nm and the sample being clear when manually inspected.) | + (denotes solubility at the given condition, as determined by UV absorbance being less than 0.1 AU at 340 nm and the sample being clear when manually inspected.)
